Data published in patent US20110268818A1, “NGAL-BINDING SIDEROPHORES AND USE THEREOF TO TREAT IRON DEFICIENCY AND IRON OVERLOAD” (priority 2008, published 2011).
Structures can show the parent of a compound that is named as a salt.

Key:
[1] = Siderophore:iron binding assay (paper chromatography); conditions: for Fe: Chromatography: 55Fe mobilised by compound on paper chromatogram developed in water, Yes/No
Text: Siderophore:Iron Binding Assay. To test whether candidates bound iron directly, candidates (1 nmole) were mixed with ^55Fe (1 pmole), and then separated bound from free ^55Fe using paper chromatography developed in water.
Paper chromatography: The Fe-Siderophore Binding Assay: The concept underlying the Ngal-siderophore-Fe binding assay is that the urinary molecule provides an iron binding siderophore, and that the Ngal protein provides the carrier which retains the siderophore:Fe on the 10 KDa filter. […] To directly test this idea, we will mix 55Fe with HMDB compounds and then separate bound from free 55Fe by using paper chromatography. […] The assay also provides an independent means to follow the purification of the urinary siderophore. Using this assay, we can measure the specific activity of the fractions to identify the peak activity, as well as to compare the urinary fraction with enterochelin to establish relative units of activity.

[2] = biological target: T1, NGAL (Homo sapiens, UniProt P80188); experiment: NGAL:siderophore:iron binding assay (retention on 10 kDa filter); conditions: for NGAL-siderophore-Fe binding activity (in words): iron retention by NGAL on filter
T1 construct: made in house; host or cells: E. coli BL-21
T1 sequence (P80188 21-198): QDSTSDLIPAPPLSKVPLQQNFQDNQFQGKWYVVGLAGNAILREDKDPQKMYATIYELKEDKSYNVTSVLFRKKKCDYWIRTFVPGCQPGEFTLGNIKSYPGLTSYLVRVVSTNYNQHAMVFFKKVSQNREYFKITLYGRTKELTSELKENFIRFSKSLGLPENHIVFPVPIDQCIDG
Method: NGAL:Siderophore:Iron Binding Assays. […] After 60 minutes, the mixture was washed 3 times (YM-10) or alternatively gel filtered (PD-10, GE Biosciences). Ent loaded NGAL served as a positive control. Ferric citrate (1 mM) or Ent:iron (500 μM) served as competitors of ^55Fe binding.
After 60 minutes at room temperature, the mixture was then washed 3 times on a 10-kDa membrane (Amicon YM-10; Millipore Corp.). Ngal loaded with iron-free enterochelin (rather than apo-Ngal) served as a positive control for iron capture. Ferric citrate (1 mM) or iron-loaded enterochelin (siderophore:Fe, […]) was used as a competitor of 55Fe binding.

[3] = apoNGAL 10 μM, 55Fe, compound 10 μM, pH 7.4, washed on 10 kDa filter

Row | Fe: Chromatography [1] | NGAL: Chelator: Fe % Retention [2, 3] | NGAL-siderophore-Fe binding activity (in words) [2] | Compound | iron chelating activity by paper chromatography (in words) [1] | NGAL: Chelator: Fe % Retention ([2]; pH 7.4)
1 | Yes | 3% | – | Nc1c(O)cccc1C(=O)CC(N)C(=O)O (racemic) [3-Hydroxy-DL-kynurenine] | active | –
2 | No | 5% | – | CC(=O)NC(CC(=O)O)c1ccccc1 (racemic) [N-Acetyl-DL-Â- phenylalanine] | – | –
3 | No | 6% | – | COc1cccc(C(=O)O)c1OC [2,3 Dimethoxybenzoic acid] | – | –
4 | Yes | 35% | active | O=C(O)c1cccc(O)c1O [2,3- Dihydroxybenzoic acid] | active | –
5 | No | 6% | – | O=C(O)c1cccnc1C(=O)O [2,3-Pyridine-dicarboxylic acid] | – | –
6 | No | 10% | – | Nc1c(O)cccc1C(=O)O [3- Hydroxyanthranilic acid] | – | –
7 | No | 12% | – | Cc1ncc(CO)c(C(=O)O)c1O [4-Pyridoxic Acid] | – | –
8 | Yes | 45% | active | O=C(O[C@@H]1Cc2c(O)cc(O)cc2O[C@@H]1c1cc(O)c(O)c(O)c1)c1cc(O)c(O)c(O)c1 [(−) Epigallocatechin gallate] | active | –
9 | No | 3% | – | C=CC1=C(C)/C(=C/c2[nH]c(Cc3[nH]c(/C=C4\NC(=O)C(C)=C4C=C)c(C)c3CCC(=O)O)c(CCC(=O)O)c2C)NC1=O [Bilirubin] | – | –
10 | No | 9% | – | C=CC1=C(C)C(/C=c2/[nH]/c(=C\c3[nH]c(/C=C4\NC(=O)C(C)=C4C=C)c(C)c3CCC(=O)O)c(CCC(=O)O)c2C)NC1=O (stereo not shown) [Biliverdin HCl] | – | –
11 | No | 8% | – | O=C(/C=C/c1ccc(O)c(O)c1)OCCc1ccccc1 [Caffeic acid phenethyl ester] | – | –
12 | No | 7% | – | O=C(O)/C=C/c1ccc(O)c(O)c1 [Caffeic acid] | – | –
13 | No | 11% | – | O=C(O)/C=C(/CC(=O)O)C(=O)O [Cis-Aconitic acid] | – | –
14 | Yes | 10% | – | N[C@@H](Cc1ccc(O)c(O)c1)C(=O)O [Dihydroxyphenyl alanine (L-DOPA)] | active | –
15 | – | 6% | – | Cc1cc2nc3c(=O)[nH]c(=O)nc-3n(C[C@H](O)[C@H](O)[C@H](O)COP(=O)(O)OP(=O)(O)OC[C@H]3O[C@@H](n4cnc5c(N)ncnc54)[C@H](O)[C@@H]3O)c2cc1C [FAD] | – | –
16 | No | 4% | – | COc1ccccc1O [Guaiacol] | – | –
17 | No | 7% | – | O=C(O)Cc1cc(O)ccc1O [Homogentisic acid] | – | –
18 | – | 7% | – | O=c1cc[nH]c(=O)[nH]1 [Uracil] | – | –

More lines, now with the values behind:

Row | Compound | Fe: Chromatography [1] | NGAL: Chelator: Fe % Retention [2, 3] | NGAL-siderophore-Fe binding activity (in words) [2] | iron chelating activity by paper chromatography (in words) [1] | NGAL: Chelator: Fe % Retention ([2]; pH 7.4)
19 | NC(Cc1ccc(O)c(O)c1)C(=O)O (racemic) [3,4-Dihydroxy-DL-phenylalanine] | Yes | 12% | – | active | –
20 | O=C1CC(C(=O)O)NC(=O)N1 (racemic) [DL- Dihdroorotic acid] | No | 7% | – | – | –
21 | NCC(=O)c1ccc(O)c(O)c1 (racemic) [DL- Norepinephrine•HCl] | No | 5% | – | – | –
22 | O=C(O)CC(C(=O)O)C(O)C(=O)O (racemic) [Isocitric acid] | Yes | – | – | – | –
23 | COc1ccccc1OC [1,2-Dimethoxybenzene] | No | 3% | – | – | –
24 | O=C(O)CNC(=O)c1ccco1 [2-Furoylglycine] | No | 6% | – | – | –
25 | O=C(O)c1ccc(O)c(O)c1 [3,4- Dihydroxybenzoic Acid] | Yes | 5% | – | active | –
26 | NCC(=O)CCC(=O)O [5-Aminolevulinic acid] | No | 3% | – | – | –
27 | O=C(O)Cc1c[nH]c2ccc(O)cc12 [5-Hydroxy-indoleacetic acid] | – | 7% | – | – | –
28 | NCCc1cc(O)c(O)c(O)c1 [5-Hydroxydopamine] | No | 10% | – | – | –
29 | N[C@@H](Cc1c[nH]c2ccc(O)cc12)C(=O)O [5-Hydroxytryptophan] | No | 4% | – | – | –
30 | NCCc1cc(O)c(O)cc1O [6-Hydroxydopamine] | No | 4% | – | – | –
31 | NC(=O)NC1NC(=O)NC1=O (stereo not shown) [Allantoin] | No | 7% | – | – | –
32 | Oc1cccc(O)c1O [Benzene 1,2,3 Trial (Pyrogallol)] | Yes | 73% | highest activities | – | –
33 | O=S1(=O)Oc2ccccc2O1 [Catechol cyclic sulfonate] | No | 6% | – | – | –
34 | O=C(/C=C/c1ccc(O)c(O)c1)O[C@@H]1C[C@](O)(C(=O)O)C[C@@H](O)[C@H]1O [Chlorogenic acid] | – | 6% | – | – | –
35 | O=C([O-])CC(O)(CC(=O)[O-])C(=O)[O-].[Na+].[Na+].[Na+] [Citric acid sodium] | Yes | 6% | – | active | –
36 | O=c1oc2c(O)c(O)cc3c(=O)oc4c(O)c(O)cc1c4c23 [Ellagic acid] | Yes | 24% | active | active | –
37 | COc1cc(/C=C/C(=O)O)ccc1O [Ferulic acid] | No | 3% | – | – | –
38 | Nc1nc2[nH]cc(CNc3ccc(C(=O)N[C@@H](CCC(=O)O)C(=O)O)cc3)nc-2c(=O)n1 [Folic acid] | No | 3% | – | – | –
39 | O=C(O)c1cc(O)ccc1O [Gentistic Acid] | No | 6% | – | – | –
40 | N[C@@H](Cc1ccccc1)C(=O)O [L-Phenylalanine] | No | 8% | – | – | –
41 | N[C@@H](Cc1c[nH]c2ccccc12)C(=O)O [L-Tryptophan] | No | 5% | – | – | –
42 | O=c1c(O)c(-c2cc(O)c(O)c(O)c2)oc2cc(O)cc(O)c12 [Myricetin] | No | 28% | active | – | –
43 | NC(=O)C1=CN([C@@H]2O[C@H](COP(=O)(O)OP(=O)(O)OC[C@H]3O[C@@H](n4cnc5c(N)ncnc54)[C@H](OP(=O)(O)O)[C@@H]3O)[C@@H](O)[C@H]2O)C=CC1 [NADPH] | Yes | 3% | – | – | –
44 | C=CC1=C(C)c2cc3[nH]c(cc4nc(cc5[nH]c(cc1n2)c(C)c5CCC(=O)O)C(CCC(=O)O)=C4C)c(C)c3C=C [Protoporphyrin IX] | – | 3% | – | – | –
45 | O=C(O)CCC(=O)O [Succinic acid] | – | – | – | – | 11%
46 | β-Nicotinamide adenine | – | – | – | active | –
